ChEMBL document CHEMBL1201862, “PubChem BioAssay data set” (2004)
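Exposure lasted 48 hours, with cells grown in 96-well plates and compounds tested at five concentrations. GI50 = concentration required for 50% inhibition of growth.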 Activity calls are given as the source filed them. Cut-off read from the data, not from the text of the source: active = GI50 up to about 1.1 µM and inactive = higher.

How the values were obtained:
Experiment in all cases: DTP human tumour cell line panel, 48 h
NCI-H23 = system: NCI-H23
SK-MEL-28 = system: SK-MEL-28
SNB-19 = system: SNB-19
CAKI-1 = system: CAKI-1
HOP-62 = system: HOP-62
A549 = system: A549
SW-620 = system: SW-620
M14 = system: M14
SK-OV-3 = system: SK-OV-3
OVCAR-8 = system: OVCAR-8
SNB-75 = system: SNB-75
HT-29 = system: HT-29
ACHN = system: ACHN
HL-60 = system: HL-60
SR = system: SR
LOX IMVI = system: LOX IMVI
U-251 = system: U-251
SF-295 = system: SF-295
DU-145 = system: DU-145
NCI/ADR-RES = system: NCI/ADR-RES

In the case of `CC(=O)OC1C(=O)C(O)C(C)OC1O[C@@H]1C[C@@]2(C)[C@@H]3CC=C4[C@@H](C[C@H](O)C(=O)C4(C)C)[C@]3(C)C(=O)C[C@]2(C)[C@H]1[C@@](C)(O)C(=O)/C=C/C(C)(C)O` (some centres undefined), the GI50 (NCI-H23) is reported as 6 µM (inactive), the GI50 (SK-MEL-28) is reported as 0.447 µM (active) and the GI50 (SNB-19) is reported as 1.62 µM (inactive). For the same compound, the GI50 (CAKI-1) was 1.36 µM (inactive), the GI50 (HOP-62) was 2.96 µM (inactive) and the GI50 (A549) was 2.64 µM (inactive). The GI50 (SW-620) was 1.12 µM (inactive), the GI50 (M14) was 0.918 µM (active) and the GI50 (SK-OV-3) was 3.06 µM (inactive). For the same compound, the GI50 (OVCAR-8) was 6.28 µM (inactive), the GI50 (SNB-75) was 0.71 µM (active) and the GI50 (HT-29) was 1.35 µM (inactive). The GI50 (ACHN) was 2.74 µM (inactive), the GI50 (HL-60) was 1.91 µM (inactive) and the GI50 (SR) was 1.52 µM (inactive). The GI50 (LOX IMVI) was 0.706 µM (active), the GI50 (U-251) was 1.16 µM (inactive) and the GI50 (SF-295) was 3.03 µM (inactive).

With `O=C1C(=Cc2ccccc2O)N=C(c2ccccc2)N1n1c(-c2ccccc2)nc2ccccc2c1=O` the GI50 (NCI-H23) was 35.4 µM (inactive), the GI50 (SK-MEL-28) was 33.8 µM (inactive) and the GI50 (SNB-19) was 48 µM (inactive). The GI50 (CAKI-1) was 25.8 µM (inactive), the GI50 (HOP-62) was 31.3 µM (inactive) and the GI50 (A549) was 33.6 µM (inactive). The GI50 (DU-145) was 35.5 µM (inactive), the GI50 (SW-620) was 45.8 µM (inactive) and the GI50 (M14) was 19.3 µM (inactive). The GI50 (SK-OV-3) was 48.3 µM (inactive), the GI50 (OVCAR-8) was 31.3 µM (inactive) and the GI50 (SNB-75) was 23.4 µM (inactive). For the same compound, the GI50 (HT-29) was 37.2 µM (inactive), the GI50 (ACHN) was 29.5 µM (inactive) and the GI50 (HL-60) was 15.2 µM (inactive). The GI50 (SR) was 32.9 µM (inactive), the GI50 (LOX IMVI) was 41.7 µM (inactive) and the GI50 (SF-295) was 22.8 µM (inactive).

For `CN1C(=O)CSC1=S` [3-METHYL-RHODANINE], the GI50 (NCI-H23) was > 100 µM (inactive), the GI50 (SK-MEL-28) was > 100 µM (inactive) and the GI50 (CAKI-1) was > 100 µM (inactive). For the same compound, the GI50 (HOP-62) was > 100 µM (inactive), the GI50 (A549) was > 100 µM (inactive) and the GI50 (SW-620) was > 100 µM (inactive). The GI50 (M14) was > 100 µM (inactive), the GI50 (SK-OV-3) was > 100 µM (inactive) and the GI50 (OVCAR-8) was > 100 µM (inactive). For the same compound, the GI50 (SNB-75) was > 100 µM (inactive), the GI50 (HT-29) was > 100 µM (inactive) and the GI50 (ACHN) was > 100 µM (inactive). The GI50 (HL-60) was > 100 µM (inactive), the GI50 (SR) was > 100 µM (inactive) and the GI50 (LOX IMVI) was > 100 µM (inactive). The GI50 (U-251) was > 100 µM (inactive) and the GI50 (SF-295) was > 100 µM (inactive).

With `FC(F)(F)c1nc(Br)[nH]c1C(F)(F)F` the GI50 (NCI-H23) was 86.7 µM (inactive), the GI50 (SK-MEL-28) was > 100 µM (inactive) and the GI50 (SNB-19) was > 100 µM (inactive). For the same compound, the GI50 (CAKI-1) was > 100 µM (inactive), the GI50 (HOP-62) was 32 µM (inactive) and the GI50 (A549) was > 100 µM (inactive). For the same compound, the GI50 (SW-620) was > 100 µM (inactive), the GI50 (M14) was > 100 µM (inactive) and the GI50 (SK-OV-3) was > 100 µM (inactive). The GI50 (OVCAR-8) was > 100 µM (inactive), the GI50 (SNB-75) was > 100 µM (inactive) and the GI50 (HT-29) was > 100 µM (inactive). For the same compound, the GI50 (ACHN) was > 100 µM (inactive), the GI50 (HL-60) was > 100 µM (inactive) and the GI50 (SR) was 35.6 µM (inactive). For the same compound, the GI50 (LOX IMVI) was > 100 µM (inactive), the GI50 (U-251) was 67.5 µM (inactive) and the GI50 (SF-295) was > 100 µM (inactive).

For `O=C(Nc1ccc(Cl)cc1)NS(=O)(=O)c1coc2cc(F)ccc2c1=O`, the GI50 (NCI-H23) was > 100 µM (inactive), the GI50 (SK-MEL-28) was > 100 µM (inactive) and the GI50 (SNB-19) was > 100 µM (inactive). For the same compound, the GI50 (CAKI-1) was > 100 µM (inactive), the GI50 (HOP-62) was > 100 µM (inactive) and the GI50 (A549) was > 100 µM (inactive). The GI50 (SW-620) was > 100 µM (inactive), the GI50 (M14) was > 100 µM (inactive) and the GI50 (SK-OV-3) was > 100 µM (inactive). For the same compound, the GI50 (OVCAR-8) was > 100 µM (inactive), the GI50 (SNB-75) was > 100 µM (inactive) and the GI50 (HT-29) was > 100 µM (inactive). The GI50 (ACHN) was 16.4 µM (inactive), the GI50 (SR) was 95.9 µM (inactive) and the GI50 (LOX IMVI) was > 100 µM (inactive). The GI50 (U-251) was 62.2 µM (inactive), the GI50 (NCI/ADR-RES) was > 100 µM (inactive) and the GI50 (SF-295) was > 100 µM (inactive).

With `CCOC(=O)CC(NCc1ccc(/N=C/c2nc3ccc(C(F)(F)F)cc3nc2-c2ccccc2)cc1)C(=O)OCC` (centres undefined) the GI50 (NCI-H23) was > 57.3 µM (inactive), the GI50 (SK-MEL-28) was > 100 µM (inactive) and the GI50 (SNB-19) was 27.9 µM (inactive). The GI50 (CAKI-1) was > 100 µM (inactive), the GI50 (HOP-62) was 29 µM (inactive) and the GI50 (A549) was > 100 µM (inactive). The GI50 (SW-620) was > 100 µM (inactive), the GI50 (M14) was > 80.7 µM (inactive) and the GI50 (SK-OV-3) was 29 µM (inactive). The GI50 (OVCAR-8) was > 100 µM (inactive), the GI50 (SNB-75) was 12.1 µM (inactive) and the GI50 (HT-29) was > 100 µM (inactive). For the same compound, the GI50 (ACHN) was > 58.6 µM (inactive), the GI50 (HL-60) was > 100 µM (inactive) and the GI50 (SR) was > 100 µM (inactive). The GI50 (LOX IMVI) was > 100 µM (inactive), the GI50 (U-251) was 21.8 µM (inactive) and the GI50 (SF-295) was 27.2 µM (inactive).

With `C/C(COc1ccccc1)=N\NC(N)=S` the GI50 (NCI-H23) was > 100 µM (inactive), the GI50 (SK-MEL-28) was > 100 µM (inactive) and the GI50 (CAKI-1) was > 100 µM (inactive). The GI50 (HOP-62) was > 100 µM (inactive), the GI50 (A549) was > 100 µM (inactive) and the GI50 (SW-620) was > 100 µM (inactive). For the same compound, the GI50 (M14) was > 100 µM (inactive), the GI50 (SK-OV-3) was > 100 µM (inactive) and the GI50 (OVCAR-8) was > 100 µM (inactive). The GI50 (SNB-75) was > 100 µM (inactive), the GI50 (HT-29) was 61.9 µM (inactive) and the GI50 (ACHN) was > 100 µM (inactive). The GI50 (HL-60) was > 100 µM (inactive), the GI50 (SR) was > 100 µM (inactive) and the GI50 (LOX IMVI) was > 100 µM (inactive). The GI50 (U-251) was > 100 µM (inactive) and the GI50 (SF-295) was > 100 µM (inactive).
